According to patent US4820834A, “Benzodiazepine analogs” (priority 1987, dated 1989):
Where a name gives a salt, the structure may show the parent alone. Read-outs that look alike come from different tables or passages of the source.

How the values were obtained:
CCK receptor (pancreas) = target: T1, CCK receptor (pancreas) (Rattus norvegicus, UniProt P30551); assay: CCK Receptor Binding (Pancreas): inhibition of ^125 I-CCK-33 binding; design: species or system Male Sprague-Dawley rats; details: rat pancreas membranes, ^125 I-CCK-33, 37° C., 30 minutes
T1 construct: The whole pancreas was dissected free of fat tissue and was homogenized; from tissue; host or cells: rat pancreas membranes (Sprague-Dawley)
T1 sequence (P30551 1-444): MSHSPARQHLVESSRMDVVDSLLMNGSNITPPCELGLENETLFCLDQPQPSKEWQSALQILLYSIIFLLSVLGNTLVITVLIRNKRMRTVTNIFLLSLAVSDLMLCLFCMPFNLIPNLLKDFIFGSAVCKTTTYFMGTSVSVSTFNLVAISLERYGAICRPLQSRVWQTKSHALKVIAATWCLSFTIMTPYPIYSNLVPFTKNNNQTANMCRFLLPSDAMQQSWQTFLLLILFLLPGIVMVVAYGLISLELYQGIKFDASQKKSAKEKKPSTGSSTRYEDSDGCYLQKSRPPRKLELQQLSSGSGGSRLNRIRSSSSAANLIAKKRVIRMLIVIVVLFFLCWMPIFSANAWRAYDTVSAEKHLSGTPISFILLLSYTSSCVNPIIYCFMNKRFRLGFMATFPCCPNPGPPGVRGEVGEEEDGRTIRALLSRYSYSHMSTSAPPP
Outline: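 Bound ^125I-CCK-33 was counted in pellets after a 30 min, 37° C incubation followed by centrifugation. Membranes came from male Sprague-Dawley rat pancreas, assayed in Tris HCl pH 7.7 containing DTT, bacitracin, PMSF and o-phenanthroline. For Scatchard analysis, tracer was diluted with rising unlabelled CCK-33.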

[1] = target: T2, CCK receptor (brain, cerebral cortex) (Cavia porcellus, UniProt H0VZC5); assay: biochemical; format: binding, Male Hartley guinea pigs; details: guinea pig cerebral cortex, ^125 I-CCK-33, 25° C., 2 hours
T2 construct: Cerebral cortex was dissected and used as a receptor source; from tissue; host or cells: guinea pig cerebral cortex membranes (male Hartley)
T2 sequence (H0VZC5 1-426): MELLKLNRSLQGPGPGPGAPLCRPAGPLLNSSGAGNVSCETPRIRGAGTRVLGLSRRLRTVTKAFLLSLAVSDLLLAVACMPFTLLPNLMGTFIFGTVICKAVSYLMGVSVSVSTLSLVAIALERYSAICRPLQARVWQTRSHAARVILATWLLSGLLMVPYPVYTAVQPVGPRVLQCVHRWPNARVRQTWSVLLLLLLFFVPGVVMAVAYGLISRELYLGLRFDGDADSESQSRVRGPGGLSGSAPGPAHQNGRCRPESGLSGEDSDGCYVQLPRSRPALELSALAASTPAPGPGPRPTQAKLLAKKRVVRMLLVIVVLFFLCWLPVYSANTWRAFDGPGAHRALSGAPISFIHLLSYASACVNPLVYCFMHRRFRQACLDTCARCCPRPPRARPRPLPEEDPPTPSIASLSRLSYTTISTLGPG
Outline: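 Binding of [radiolabeled] CCK-33 measured by gamma counting of centrifuged pellets after 2 h at 25°C. Membranes came from guinea pig brain cortex, suspended in 10 mM HEPES, 5 mM MgCl2, 1 mM EGTA, 0.25 mg/ml bacitracin, 0.4% BSA.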

[2] = target: T3, Gastrin receptor (gastric glands) (Cavia porcellus, UniProt H0VZC5); assay: Gastrin Receptor Binding in Guinea Pig Gastric Glands; design: species or system guinea pig (male Hartley); details: 25° C., 30 minutes
T3 construct: The washed guinea pig gastric glands prepared as above were resuspended; from tissue; host or cells: guinea pig gastric mucosal glands (male Hartley)
T3 sequence (H0VZC5 1-426): T2 sequence (H0VZC5 1-426)

[3] = read-out: IC50 ^125 I-CCK Pancreas
[4] = IC50 ^125 I-Gastrin Gastric Glands
[5] = read-out: IC50 ^125 I-CCK Brain
[6] = ^125 I-gastrin, read-out: IC50 ^125 I-Gastrin Gastric Glands

SMILES	IC50 (CCK receptor (pancreas); [3]) [nM]	IC50 ([1]; IC50 ^125 I-CCK Brain) [nM]	IC50 [2, 4] [nM]	IC50 (CCK receptor (pancreas); IC50 ^125 I-CCK Pancreas) [nM]	IC50 [1, 5] [nM]	IC50 [2, 6] [nM]
CCOC(=O)CN1C(=O)C(NC(=O)Nc2ccc(Cl)cc2)N=C(c2ccccc2)c2ccccc21 (stereo not drawn) [Example 204, 3-((((4-Chlorophenyl)amino)carbonyl)amino)-2,3-dihydro-2-oxo-5-phenyl-1H-1,4-benzodiazepine-1-acetic acid ethyl ester]	370	1	3.3			
CCOC(=O)CN1C(=O)C(NC(=O)NC(C)C)N=C(c2ccccc2F)c2ccccc21 (stereo not drawn) [Example 205, 5-(2-Fluorophenyl)-2,5-dihydro-3-((((1-methylethyl)amino)carbonyl)amino)-2-oxo-1H-1,4-benzodiazepine-1-acetic acid ethyl ester]				35000	> 300	33000
CN1C(=O)[C@H](NC(=O)c2ccc(C(F)(F)F)cc2)N=C(c2ccccc2)c2ccccc21 [Example 207, (R)-N-(2,3-Dihydro-1-methyl-2-oxo-5-phenyl-1H-1,4-benzodiazepin-3-yl)-4-(trifluoromethyl)-benzamide]	115000	3300				4200
O=C(Nc1ccc(Cl)cc1)NC1N=C(c2ccccc2)c2ccccc2N(CC(=O)OCc2ccccc2)C1=O (stereo not drawn) [Example 208, 3-((((4-Chlorophenyl)amino)carbonyl)amino)-2,3-dihydro-2-oxo-5-phenyl-1H-1,4-benzodiazepine-1-acetic acid phenylmethyl ester]	1300				44	140
CCOC(=O)CN1C(=O)C(NC(=O)OCc2ccccc2)N=C(c2ccccc2)c2ccccc21 (stereo not drawn) [Example 209, 2,3-Dihydro-2-oxo-5-phenyl-3-(((phenylmethoxy)carbonyl)amino)-1H-1,4-benzodiazepine-1-acetic acid ethyl ester]				2200	300	300
CN1C(=O)[C@@H](Cc2c[nH]c3ccccc23)N=C(c2ccccc2)c2ccccc21 [Example 210, (R)-1,3-Dihydro-3-(1H-indol-3-ylmethyl)-1-methyl-5-phenyl-2H-1,4-benzodiazepin-2-one]		10000	21000	300		
O=C(CN1C(=O)C(NC(=O)OCc2ccccc2)N=C(c2ccccc2)c2ccccc21)NCc1ccccc1 (stereo not drawn) [Example 212, (2,3-Dihydro-2-oxo-1-(2-oxo-2-((phenylmethyl)amino)ethyl)-5-phenyl-1H-1,4-benzodiazepin-3-yl)-carbamic acid phenylmethyl ester]				1900	400	600
CCCCNC(=O)CN1C(=O)C(NC(=O)OCc2ccccc2)N=C(c2ccccc2)c2ccccc21 (stereo not drawn) [Example 213, {2,3-Dihydro-2-oxo-1-[2-oxo-2-(butylamino)ethyl]-5-phenyl-1H-1,4-benzodiazepin-3-yl}-carbamic acid phenylmethyl ester]				2100	380	280
CCOC(=O)CN1C(=O)C(NC(=O)c2cc3ccccc3[nH]2)N=C(c2ccccc2F)c2ccccc21 (stereo not drawn) [Example 214, 5-(2-Fluorophenyl)-2,3-dihydro-3-((1H-indol-2-ylcarbonyl)amino)-2-oxo-1H-1,4-benzodiazepine-1-acetic acid ethyl ester]	3	220	120			
CCNC(=O)CN1C(=O)C(NC(=O)OCc2ccccc2)N=C(c2ccccc2)c2ccccc21 (stereo not drawn) [Example 215]				4800	1800	560
CN1C(=O)C(NC(=O)c2ccc(Br)cc2)N=C(c2ccccc2)c2ccccc21 (stereo not drawn) [Example 216, 4-Bromo-N-(2,3-dihydro-1-methyl-2-oxo-5-phenyl-1H-1,4-benzodiazepin-3-yl)-benzamide]	1	2400				1700
CN1C(=O)C(NC(=O)Nc2ccc(Cl)cc2)N=C(c2ccccc2)c2ccccc21 (stereo not drawn) [Example 217]	51	23				22
CN1C(=O)[C@@H](NC(=O)c2ccc(C(F)(F)F)cc2)N=C(c2ccccc2F)c2ccccc21 [Example 219, (S)-N-(5-(2-Fluorophenyl)-2,3-dihydro-1-methyl-2-oxo-1H-1,4-benzodiazepin-3-yl)-4-(trifluoromethyl)-benzamide]		1400		0.5		440
O=C(CN1C(=O)C(NC(=O)Nc2ccc(Cl)cc2)N=C(c2ccccc2)c2ccccc21)NCc1ccccc1 (stereo not drawn) [Example 220]	2400				100	150
CCN(CC)C(=O)CN1C(=O)C(NC(=O)Nc2ccc(Cl)cc2)N=C(c2ccccc2)c2ccccc21 (stereo not drawn) [Example 221, 3-((((4-Chlorophenyl)amino)carbonyl)amino)-N,N-diethyl-2,3-dihydro-2-oxo-5-phenyl-1H-1,4-benzodiazepine-1-acetamide]	400				0.6	2
CCN(CC)C(=O)CN1C(=O)C(NC(=O)OCc2ccccc2)N=C(c2ccccc2)c2ccccc21 (stereo not drawn) [Example 222]				2200	150	230
CCCCCc1ccc(C(=O)NC2N=C(c3ccccc3F)c3ccccc3N(C)C2=O)cc1 (stereo not drawn) [Example 223, N-(5-(2-Fluorophenyl)-2,3-dihydro-1-methyl-2-oxo-1H-1,4-benzodiazepin-3-yl)-4-pentylbenzamide]		> 100000	> 100000	140		
CCNC(=O)CN1C(=O)C(NC(=O)Nc2ccc(Cl)cc2)N=C(c2ccccc2)c2ccccc21 (stereo not drawn) [Example 224, 3-((((4-Chlorophenyl)amino)carbonyl)amino)-N-ethyl-2,3-dihydro-2-oxo-5-phenyl-1H-1,4-benzodiazepine-1-acetamide]	2100				11	25
CN1C(=O)C(NC(=O)c2ccc(C(C)(C)C)cc2)N=C(c2ccccc2F)c2ccccc21 (stereo not drawn) [Example 226, 4-(1,1-Dimethylethyl)-N-(5-(2-fluorophenyl)-2,3-dihydro-1-methyl-2-oxo-1H-1,4-benzodiazepin-3-yl)-benzamide]				< 100	2300	6400
CC(C)CC(N)C(=O)N1CC(CC2N=C(c3ccccc3)c3ccccc3NC2=O)c2ccccc21 (stereo not drawn) [Example 227, 1-(2-Amino-4-methyl-1-oxopentyl)-3-((2,3-dihydro-2-oxo-5-phenyl-1H-1,4-benzodiazepin-3-yl)methyl)-2,3-dihydro-1H-indole hydrochloride]		50000	> 100000	6600		
CCCCCc1ccc(C(=O)N[C@H]2N=C(c3ccccc3F)c3ccccc3N(C)C2=O)cc1 [Example 228, (S)-N-(5-(2-Fluorophenyl)-2,3-dihydro-1-methyl-2-oxo-1H-1,4-benzodiazepin-3-yl)-4-pentylbenzamide]		100000	60000	49		
CCOC(=O)CCN1C(=O)C(NC(=O)OCc2ccccc2)N=C(c2ccccc2)c2ccccc21 (stereo not drawn) [Example 229, 2,3-Dihydro-2-oxo-5-phenyl-3-(((phenylmethoxy)carbonyl)amino)-1H-1,4-benzodiazepine-1-propanoic acid ethyl ester]				1200	440	260
CCOC(=O)CCN1C(=O)C(NC(=O)Nc2ccc(Cl)cc2)N=C(c2ccccc2)c2ccccc21 (stereo not drawn) [Example 230, 3-((((4-Chlorophenyl)amino)carbonyl)amino)-2,3-dihydro-2-oxo-5-phenyl-1H-1,4-benzodiazepine-1-propanoic acid ethyl ester]	490	5.1	35			
